pIC50: −log10 of the molar value.
Tests used:
[1] = tested on: Human pancreatic cancer cell line HPAF-II; assay: HPAF-II growth inhibition assay (Example 317); type: cell-based; details: 120 h, HPAF-II cells, 5 days culture, CellTiter Glo 2.0 (Example 317, Table 11), read-out: Absolute IC50
Procedure: Cells of the human pancreatic cancer cell line HPAF-II (ATCC Number CRL-1997) were maintenance cultured in a 5% CO2 incubator (37° C.) using RPMI 1640 (FujiFilm-Wako Pure Chemical Industries) containing 10% fetal bovine serum (FBS: SIGMA 173012) and penicillin/streptomycin (FujiFilm-Wako Pure Chemical Industries) (hereunder referred to simply as “culture medium”). After adding 25 μL of HPAF-II cell suspension prepared to 3.2×10^4 cells/mL using culture medium into each well of a 384-well plate (Greiner 781091), the cells were cultured overnight in a 5% CO2 incubator (37° C.). On the following day, 25 μL of the test substance diluted with culture medium was added to each well, and culturing was continued for 5 days in a 5% CO2 incubator (37° C.). Next, 25 μL of CellTiter Glo™ 2.0 (Promega) was added to each well, and the plate contents were mixed for 5 minutes using a plate mixer. The plate was stationed for 10 minutes at room temperature while shielded from light, and then the luminous intensity was measured with an ENVISION′ (Perkin-Elmer). The luminescence value of the wells with addition of test substance was determined as a relative value, with 100% as the luminescence value of the wells with cells but without addition of the test substance and 0% as the luminescence value of the wells without cells. […]

AsPC-1/Cas9 cell line = assay: AsPC-1/Cas9 growth inhibition assay; type: cell-based, human; details: Homo sapiens, ASPC1, 120 h, AsPC-1/Cas9 cells, 5 days culture, CellTiter Glo 2.0; read-out: Absolute IC50—Day 5 (nM) AsPC-1 Cas9
Procedure: The human pancreatic cancer cell line AsPC-1 (ATCC Number CRL1682) was infected with Edit-R Lentiviral hCMV-Blast-Cas9 Nuclease Particle (Dharmacon, VCAS10124) in the presence of 8 μg/ml of Hexadimethrine bromide (Sigma, H9268), and after 24 hours it was exposed to 10 μg/ml of Blastcidin S (Thermo, A11139) to remove the uninfected cells, thereby establishing an AsPC-1/Cas9 cell line. The cells were maintenance cultured in a 5% CO2 incubator (37° C.) using RPMI-1640 (FujiFilm-Wako Pure Chemical Industries) containing 10% fetal bovine serum (FBS: SIGMA 173012) and penicillin/streptomycin (FujiFilm-Wako Pure Chemical Industries) (hereunder referred to simply as “culture medium”). After adding 45 μL of AsPC-1/Cas9 cell suspension prepared to 2.0×10^4 cells/mL using culture medium into each well of a 384-well plate (Greiner 781091), the cells were cultured overnight in a 5% CO2 incubator (37° C.). On the following day, 5 μL of the test substance diluted with culture medium was added to each well, and culturing was continued for 5 days in a 5% CO2 incubator (37° C.). Next, 25 μL of CellTiter Glo™ 2.0 (Promega) was added to each well, and the plate contents were mixed for 5 minutes using a plate mixer. The plate was stationed for 10 minutes at room temperature while shielded from light, and then the luminous intensity was measured with an ENVISION™ (Perkin-Elmer). The luminescence value of the wells with addition of test substance was determined as a relative value, with 100% as the luminescence value of the wells with cells but without addition of the test substance, and 0% as the luminescence value of the wells without cells. A plot of test substance concentration against luminescence value % approximated a 4-parameter logistic curve, and the test substance concentration necessary for 50% inhibition of cell growth (Absolute IC50) was calculated, and is shown in Table 4.

[2] = biological target: HiBiT tagged BRD4-BD1 protein in HEK293/LgBiT/hPGK/HiBiT-BRD4-BD1 cells (Homo sapiens, UniProt O60885); assay: BET BD1 domain degradation assay; type: cell-based; design: HiBit-linker-BRD4 BD1(1-209); host or cells: HEK293 (ATCC CRL-1573) stably transduced with LgBiT and HiBiT-BRD4-BD1; details: concentration for 50% reduction in HiBiT-BRD4-BD1 protein level, 3 hours, read-out: Absolute DC50—3 h (nM) HEK293_HiBiT-BRD4-BD1
Excerpt: HEK293/LgBiT/hPGK/HiBiT-BRD4-BD1 cells were established by introducing LgBiT and HiBiT-BRD4-BD1 into the human fetus renal cell line HEK293 (ATCC Number CRL-1573). LgBiT was introduced using lentivirus vector LV[Exp]-Bsd-EFS>{LgBiT}, and HiBiT-BRD4-BD1 was introduced with lentivirus vector LV[Exp]-Puro-hPGK>{HiBit-linker-BRD4 BD1(1-209)}. The vector plasmids LV[Exp]-Bsd-EFS>{LgBiT} and LV[Exp]-Puro-hPGK>{HiBit-linker-BRD4_BD1(1-209)} were constructed by VectorBuilder Co. The lentivirus was produced using a Mission Lentivirus Packaging Mix (Sigma) according to the manufacturer's protocol. Viral infection and drug selection of infected cells were carried out by the following published method (Akagi T. et. al, PNAS 2003; 100:13567-72). The cells were maintenance cultured in a 5% CO2 incubator (37° C.), using culture medium. A 45 μL portion of cell suspension of HEK293/LgBiT/hPGK/HiBiT-BRD4-BD1 cells prepared to 6.7×10^4 cells/mL using culture medium was added to each well of a collagen I-coated 384-well plate (Falcon 356667), and the cells were cultured overnight in a 5% CO2 incubator (37° C.). On the following day, 5 μL of test substance diluted with RPMI-1640 (FujiFilm-Wako Pure Chemical Industries) containing 10% fetal bovine serum (FBS: SIGMA 173012) and penicillin/streptomycin (FujiFilm-Wako Pure Chemical Industries) was added to each well, and culturing was continued for 3 hours in a 5% CO2 incubator (37° C.). The luminous intensity was measured using a Nono-Glo HiBiT Lytic Detection System (Promega), and the intracellular HiBiT tagged BRD4-BD1 protein level was calculated. After culturing, 25 μL of measuring reagent was added to each well and the plate contents were mixed for 5 minutes using a plate mixer. The plate was stationed for 10 minutes at room temperature while shielded from light, and then the luminous intensity was measured with an ENVISION′ (Perkin-Elmer). The luminescence value of the wells with addition of test substance was determined as a relative value, with 100% as the luminescence value of the wells with cells but without addition of the test substance, and 0% as the luminescence value of the wells without cells. A plot of test substance concentration against luminescence value % approximated a 4-parameter logistic curve, and the test substance concentration necessary for 50% reduction in protein level (Absolute DC50) was calculated and is shown in Table 4.

COc1ccc(C#CCNC2(C)CCN(C3CCN(c4nc([C@@](CO)(OC5CC5)c5ccccc5)c5cc(-c6cn(C)c(=O)c7[nH]ccc67)ccc5n4)CC3)CC2)cc1N1CCC(=O)N(CNC(=O)[C@H](CC(N)=O)NC(C)=O)C1=O [Example 135, (S)-2-Acetamide-N1-((3-(5-(3-((1′-(4-((S)-1-cyclopropoxy-2-hydroxy-1-phenylethyl)-6-(6-methyl-7-oxo-6,7-dihydro-1H-pyrrolo[2,3-c]pyridin-4-yl)quinazolin-2-yl)-4-methyl-[1,4′-bipiperidin]-4-yl)amino)prop-1-yn-1-yl)-2-methoxyphenyl)-2,6-dioxotetrahydropyrimidine-1(2H)-yl)methyl)succinamide]
pIC50 [1]: 8.54 | IC50 (AsPC-1/Cas9 cell line): 2.4 nM | DC50 [2]: > 100 nM
